{"source": "patent US10732173B2", "about": "“Use of aldehyde dehydrogenase as biomarker for beta-cell dysfunction and loss” (THE TRUSTEES OF COLUMBIA UNIVERSITY IN THE CITY OF NEW YORK, priority 2015, dated 2020)", "test_system": "MIN6 cells overexpressing ALDH1A3", "assay": "Glucose-stimulated insulin secretion in the presence of the ALDH inhibitor DEAB", "type": "cell-based, mouse", "conditions": "MIN6 cells overexpressing ALDH1A3, in the presence of DEAB (FIG. 12F)", "data": [{"compound": "CCN(CC)c1ccc(C=O)cc1", "note": "[DEAB, N,N-diethylaminobenzaldehyde]", "values": [{"measurement": "effect on insulin secretion", "value": "did not detect an effect"}]}]}
